Data taken from paper PMC9029599, “Cytotoxicity and Antiviral Properties of Alkaloids Isolated from Pancratium maritimum” (Toxins, 2022).
Like-named read-outs stand apart in the source and are kept apart here.

Assays:
DENVGFP = experiment: microbe, parasite or virus in culture; assay type: cell-based, dengue virus
Huh7 cells = experiment: Cytotoxicity in Huh7 cells (ATP levels, Cell-Titer GLO)
Experimental: (§1) To account for non-specific antiviral activity caused by enhanced cell death, the cytotoxicity of P. maritimum isolated AAs was first determined in THP-1 and Huh7 virus-targeted cell lines exposed to concentrations ranging from 0.05 to 200 µM for 72 h. Cell viability was measured using ATP levels as a marker.
(§2) The monocytic cell line THP-1 derived from an acute monocytic leukemia patient was used in HIV-1GFP infection assays, while the hepatocyte-derived carcinoma cell line Huh7 was used with DENVGFP. Cell viability was evaluated using the Cell-Titer GLO assay kit (Promega, Madison, WI, USA) as previously described. Briefly, 7.5 × 10^3 Huh7 cells/well or 4 × 10^4 THP-1 cells/well were seeded in 96-well dark plates and treated with isolated AAs dissolved in methanol at concentrations ranging from 0.05 to 200 µM for 72 h. Afterwards, Cell-Titer GLO reagent was added in each well of room temperature-equilibrated plates. Luminescence was measured 10 min after shaking the plates for 2 min using a microplate spectrophotometer (Synergy H1, Biotek, Québec, QC, Canada). The percentage of viable cells was calculated at each concentration relatively to cells treated with matched concentrations of MetOH.

AGS cells = experiment: MTT viability test, AGS cells; assay type: cell-based; conditions: for IC50: Homo sapiens, AGS; for effect on AGS cell viability: 0.5 to 50 µM, 24 and 48 h; for cytotoxic activity on AGS cells: in words
Experimental: (§3) The potential cytotoxic activity of P. maritimum alkaloids was evaluated on Hacat, A431 and AGS cells treated with concentrations ranging from 0.5 to 10 µM for 24 and 48 h by measuring the reduction of 3-(4,5-dimethylthiazol-2) 2,5- diphenyltetrazolium bromide (MTT) to formazan by the mitochondrial enzyme succinate dehydrogenase.
(§4) HaCaT, spontaneously immortalized keratinocytes from adult skin, and AGS gastric adenocarcinoma cells were purchased from Service Cell Line (GmBH, Eppelheim, CLS, Germany). A431 (ATCC-CRL1555) human epidermoid carcinoma cells were from American Type Culture Collection (ATCC, Manassas, VA, USA). All mentioned cell lines were cultured in Dulbecco’s Modified Eagle’s Medium (DMEM, Sigma Chemical Co., St. Louis, MO, USA) supplemented with 10% fetal bovine serum (FBS, Hyclone Laboratories, Inc. Logan, UT, USA) at 37 °C in a humidified atmosphere of 5% CO2. Absence of mycoplasma contamination was verified for all cell lines. The purified alkaloids were resuspended in DMSO and added to the cell medium at concentrations varying from 0.5 to 50 µM as indicated.
Cell viability was evaluated by measuring the reduction of 3-(4,5-dimethylthiazol-2) 2,5-diphenyltetrazolium bromide (MTT) to formazan by the mitochondrial enzyme succinate dehydrogenase. Briefly, 10 × 10^3 cells were seeded on 96-well plates and exposed to different concentrations of total extract or metabolites for 48 h. and 72 h. MTT/PBS solution (0.5 mg/mL) was then added to the wells and incubated for 3 h at 37 °C in a humidified atmosphere. The reaction was stopped by removal of the supernatant followed by dissolving the formazan product in acidic isopropanol and the optical density was measured with Synergy H4 microplate reader Gen5 2.07 (Thermofisher, Waltham, MA, USA) using a 570 nm filter. Under these experimental conditions, no undissolved formazan crystals were observed. Cell viability was assessed by comparing the optical density of the treated samples compared to the controls. […] Data were represented as the mean standard deviation and analyzed for statistical significance using ordinary one-way analysis of variance (ANOVA) and multiple comparisons. For all tests, p < 0.05 was considered to indicate a statistically significant difference.

[1] = system: VSV-G-pseudotyped HIV-1GFP; experiment: cells; assay type: cell-based, human immunodeficiency virus-1; conditions: for EC50: read-out: EC50 HIVGFP
THP-1 cells = experiment: Cytotoxicity in THP-1 cells (ATP levels, Cell-Titer GLO); conditions: 72 h; for live THP-1 cells: 6.25 µM
Experimental: as §1, §2

[2] = as above; conditions: human
Experimental: as §1, §2

A431 cells [3] = conditions: for reduction of A431 cell viability: 10 µM, 24 h of treatment, MTT; for cytotoxic activity on A431 cells: in words
Experimental: as §3, §4
(§5) Cell viability was evaluated by measuring the reduction of 3-(4,5-dimethylthiazol-2) 2,5-diphenyltetrazolium bromide (MTT) to formazan by the mitochondrial enzyme succinate dehydrogenase. Briefly, 10 × 10^3 cells were seeded on 96-well plates and exposed to different concentrations of total extract or metabolites for 48 h. and 72 h. MTT/PBS solution (0.5 mg/mL) was then added to the wells and incubated for 3 h at 37 °C in a humidified atmosphere. The reaction was stopped by removal of the supernatant followed by dissolving the formazan product in acidic isopropanol and the optical density was measured with Synergy H4 microplate reader Gen5 2.07 (Thermofisher, Waltham, MA, USA) using a 570 nm filter. Under these experimental conditions, no undissolved formazan crystals were observed. Cell viability was assessed by comparing the optical density of the treated samples compared to the controls. Statistical analyses were carried out using the GraphPad Prism version 8.1.2 (https://www.graphpad.com/scientific-software/prism/ (accessed on 18 December 2021)). Data were represented as the mean standard deviation and analyzed for statistical significance using ordinary one-way analysis of variance (ANOVA) and multiple comparisons. For all tests, p < 0.05 was considered to indicate a statistically significant difference.

Hacat cells [4] = conditions: for reduction of Hacat cell viability: 10 µM, 24 h of treatment, MTT; for cytotoxic activity on Hacat cells: in words
Experimental: as §3, §4, §5

in vitro = conditions: human
Experimental: as §1, §2

Hacat cells [5] = experiment: cells; conditions: Homo sapiens, read-out: IC50 Hacat
Experimental: as §3, §4, §5

A431 cells [6] = experiment: cells; conditions: Homo sapiens, A-431, read-out: IC50 A431
Experimental: as §3, §4, §5

[7] = Dengue virus, Huh-7, 72 h, read-out: EC50 DENVGFP, Huh7 cells, MOI = 0.02, 72 h
[8] = Dengue virus, Huh-7, read-out: EC50 DENV, Huh7 cells
[9] = MTT, time not stated, read-out: IC50 AGS
[10] = read-out: EC50 DENVGFP, Huh7 cells, MOI = 0.02, 72 h

Compound: COC1C=CC23c4cc5c(cc4CN(CC2O)C3C1)OCO5 (centres unmarked) [Haemanthamine]
- DENVGFP inhibition at 1.56 µM (DENVGFP; Huh7 cells): Complete inhibition
- EC50 (DENVGFP; [7]): 0.34 µM
- EC50 (DENVGFP; [8]): 0.337 µM
- live Huh7 cells (Huh7 cells; 3.125 µM, 72 h): 82.2%
- concentration at which Huh7 cell viability is reduced (Huh7 cells; 72 h): above 3.125 µM
- IC50 (AGS cells; 24 h, read-out: IC50 AGS cells at 24 h): 7.5 µM
- IC50 (AGS cells; MTT, 48 h, read-out: IC50 AGS cells at 48 h): 7.5 µM
- IC50 (AGS cells; [9]): 7.5 µM
- HIV-1GFP inhibition at 100 µM [1]: Complete viral inhibition
- inhibition of HIV-1GFP, dose dependence [1]: dose-dependent inhibition of HIV-1
- EC50 ([1]; Homo sapiens, THP-1, 72 h): 25.3 µM
- EC50 [1]: 25.3 µM
- live THP-1 cells (THP-1 cells): 71%
- concentration at which THP-1 cell viability begins to decrease (THP-1 cells): 3.125 µM
- CC50 (THP-1 cells; read-out: CC50 THP-1, ATP levels): 22.2 µM
- CC50 at 72 h ([2]; CC50 THP-1, 72 h, ATP levels): 22.2 µM
- reduction of A431 cell viability (A431 cells [3]): 15–30%
- reduction of Hacat cell viability (Hacat cells [4]): 15–30%

Compound: COC1C=CC23c4cc5c(cc4C(OC(=O)c4ccc(Br)cc4)N(CC2OC(=O)c2ccc(Br)cc2)C3C1)OCO5 (centres unmarked) [compound 12, 6,11-O,O′-Di-p-Bromobenzoyl Ester of haemanthidine]
- effect on AGS cell viability (AGS cells; MTT): able to reduce AGS cell viability

Compound: COc1cc2c(cc1OC)[C@H]1[C@H]3C(=CC[C@H]1OC2=O)CCN3C [Homolycorine]
- EC50 (DENVGFP; [7]): 65 µM
- EC50 (DENVGFP; [10]): 65 µM

Compound: CO[C@@H]1C=C[C@@]23c4cc5c(cc4C(O)N(C[C@@H]2O)[C@H]3C1)OCO5 (some centres unmarked) [Haemanthidine]
- DENVGFP inhibition at 1.56 µM (DENVGFP; Huh7 cells): Complete inhibition
- EC50 (DENVGFP; [7]): 0.48 µM
- EC50 (DENVGFP; [8]): 0.476 µM
- live Huh7 cells (Huh7 cells; 6.25 µM, 72 h): 83.3%
- concentration at which Huh7 cell viability is reduced (Huh7 cells; 72 h): 6.25 µM
- IC50 (AGS cells; [9]): 5 µM
- cytotoxic activity on AGS cells (AGS cells): showed cytotoxic activity
- HIV-1GFP inhibition at 100 µM [1]: Complete viral inhibition
- inhibition of HIV-1GFP, dose dependence [1]: dose-dependent inhibition of HIV-1
- EC50 ([1]; Homo sapiens, THP-1, 72 h): 12.7 µM
- EC50 [1]: 12.7 µM
- live THP-1 cells (THP-1 cells): 71%
- concentration at which THP-1 cell viability begins to decrease (THP-1 cells): 3.125 µM
- CC50 at 72 h ([2]; CC50 THP-1, 72 h, ATP levels): 16.8 µM
- reduction of A431 cell viability (A431 cells [3]): 15–30%
- cytotoxic activity on A431 cells (A431 cells [3]): showed cytotoxic activity
- reduction of Hacat cell viability (Hacat cells [4]): 15–30%
- cytotoxic activity on Hacat cells (Hacat cells [4]): showed cytotoxic activity

Compound: OC1C=CC23c4cc5c(cc4CN(CC2O)C3C1)OCO5 (centres unmarked) [11-Hydroxyvittatine]
- EC50 (DENVGFP; [7]): 3.92 µM
- viability at 72 h, 50 µM (in vitro): 73.8%
- concentration at which Huh7 cell viability is reduced (Huh7 cells; 72 h): higher than 50 µM
- inhibition of HIV-1GFP, dose dependence [1]: dose-dependent inhibition of HIV-1
- EC50 ([1]; Homo sapiens, THP-1, 72 h): 65.1 µM
- viability at 72 h, 100 µM [2]: 52.3%
- CC50 at 72 h ([2]; CC50 THP-1, 72 h, ATP levels): 113 µM

Compound: O[C@H]1[C@H]2c3cc4c(cc3CN3CCC(=C[C@@H]1O)[C@H]23)OCO4 [Lycorine]
- DENVGFP inhibition at 1.56 µM (DENVGFP; Huh7 cells): Complete inhibition
- EC50 (DENVGFP; [7]): 0.386 µM
- EC50 (DENVGFP; [10]): 0.39 µM
- reduction of Huh7 viability (Huh7 cells; 0.78 µM, 72 h): 21%
- reduction of Huh7 cell viability (Huh7 cells; 1.56 µM): 25%
- IC50 (AGS cells; [9]): < 0.5 µM
- cytotoxic activity on AGS cells (AGS cells): showed cytotoxic activity
- HIV-1GFP inhibition at 100 µM [1]: Complete viral inhibition
- inhibition of HIV-1GFP, dose dependence [1]: dose-dependent inhibition of HIV-1
- EC50 ([1]; Homo sapiens, THP-1, 72 h): 10.9 µM
- CC50 (THP-1 cells; human): 4.61 µM
- CC50 at 72 h ([2]; CC50 THP-1): 4.6 µM
- cytotoxic activity on A431 cells (A431 cells [3]): showed cytotoxic activity
- cytotoxic activity on Hacat cells (Hacat cells [4]): showed cytotoxic activity
- IC50 (Hacat cells [5]): 0.5 µM
- IC50 (A431 cells [6]): 0.5 µM

Compound: CO[C@@H]1C=C[C@@]23c4cc5c(cc4CN(CCc4ccc(O)cc4)[C@@H]2C(=O)N(C)[C@H]3C1)OCO5 [Obliquine]
- EC50 (DENVGFP; [7]): 73.6 µM
- EC50 (DENVGFP; [10]): 73.6 µM
- viability at 72 h, 100 µM (in vitro; Huh7 hepatocyte-derived carcinoma cells): 82.6%
- concentration at which Huh7 cell viability is reduced (Huh7 cells; 72 h): 100 µM
- inhibition of HIV-1GFP, dose dependence [1]: dose-dependent inhibition of HIV-1
- EC50 ([1]; Homo sapiens, THP-1, 72 h): 153 µM
- viability at 72 h, 100 µM [2]: 55.3%
- CC50 at 72 h ([2]; CC50 THP-1, 72 h, ATP levels): 127 µM

Compound: CO[C@@H]1C=C[C@@]23c4cc5c(cc4CO[C@]2(O)CN(C)[C@H]3C1)OCO5 [Tazettine]
- EC50 (DENVGFP; [7]): 12.5 µM
- viability at 72 h, 50 µM (in vitro): 85.2%
- concentration at which Huh7 cell viability is reduced (Huh7 cells; human, 72 h): higher than 50 µM
- inhibition of HIV-1GFP, dose dependence [1]: dose-dependent inhibition of HIV-1
- EC50 ([1]; Homo sapiens, THP-1, 72 h): 120 µM
- viability at 72 h, 100 µM [2]: 60.9%
- CC50 at 72 h ([2]; CC50 THP-1, 72 h, ATP levels): 137 µM
- reduction of A431 cell viability (A431 cells [3]): 15–30%
- reduction of Hacat cell viability (Hacat cells [4]): 15–30%

Compound: O[C@@H]1C=C[C@]23CCN(Cc4cc5c(cc42)OCO5)[C@H]3C1 [Vittatine]
- EC50 (DENVGFP; [7]): 15.5 µM

Compound: COC1C=CC23c4cc5c(cc4C(OC(=O)c4ccc(Br)cc4)N(CC2OC(=O)c2ccc(Br)cc2)C3C1)OCO5 (centres unmarked) [compound 11, 6,11-O,O′-Di-p-Bromobenzoyl Ester of haemanthidine]
- effect on AGS cell viability (AGS cells; MTT): able to reduce AGS cell viability

Compound: OC1C=C2C3CN(Cc4cc5c(cc43)OCO5)C2CC1O (centres unmarked) [Pancracine]
- DENVGFP inhibition at 1.56 µM (DENVGFP; Huh7 cells): Complete inhibition
- EC50 (DENVGFP; [7]): 0.358 µM
- EC50 (DENVGFP; [8]): 0.357 µM
- EC50 (DENVGFP; [10]): 0.36 µM
- live Huh7 cells (Huh7 cells; 6.25 µM, 72 h): 78.1%
- concentration at which Huh7 cell viability is reduced (Huh7 cells; 72 h): 6.25 µM
- HIV-1GFP inhibition at 100 µM [1]: Complete viral inhibition
- inhibition of HIV-1GFP, dose dependence [1]: dose-dependent inhibition of HIV-1
- EC50 ([1]; Homo sapiens, THP-1, 72 h): 18.5 µM
- EC50 [1]: 18.5 µM
- live THP-1 cells (THP-1 cells): 82%
- concentration at which THP-1 cell viability begins to decrease (THP-1 cells): 3.125 µM
- CC50 at 72 h ([2]; CC50 THP-1, 72 h, ATP levels): 25.9 µM

Compound: Cc1nnc(C(=O)NC(C)(C)c2nc(C(=O)NCc3ccc(F)cc3)c(O)c(=O)n2C)o1 [Raltegravir, reference compound]
- HIV-1 infection with positive control [1]: completely impeded HIV-1 infection
